“Also recorded” adds a separate entry of the source.
Key:
[1] = target: T1, fibrin (acellular clot phantoms) (Homo sapiens, UniProt P02671+P02675+P02679); assay: Binding of 99mTc monomeric construct to acellular clot phantoms (Scatchard plot)
T1 construct: 100 μL of human plasma was quickly mixed with 3 unit of thrombin solution; from tissue; host or cells: human plasma clotted with thrombin
T1 sequence (P02671 20-644 isoform P02671-2 limits assumed): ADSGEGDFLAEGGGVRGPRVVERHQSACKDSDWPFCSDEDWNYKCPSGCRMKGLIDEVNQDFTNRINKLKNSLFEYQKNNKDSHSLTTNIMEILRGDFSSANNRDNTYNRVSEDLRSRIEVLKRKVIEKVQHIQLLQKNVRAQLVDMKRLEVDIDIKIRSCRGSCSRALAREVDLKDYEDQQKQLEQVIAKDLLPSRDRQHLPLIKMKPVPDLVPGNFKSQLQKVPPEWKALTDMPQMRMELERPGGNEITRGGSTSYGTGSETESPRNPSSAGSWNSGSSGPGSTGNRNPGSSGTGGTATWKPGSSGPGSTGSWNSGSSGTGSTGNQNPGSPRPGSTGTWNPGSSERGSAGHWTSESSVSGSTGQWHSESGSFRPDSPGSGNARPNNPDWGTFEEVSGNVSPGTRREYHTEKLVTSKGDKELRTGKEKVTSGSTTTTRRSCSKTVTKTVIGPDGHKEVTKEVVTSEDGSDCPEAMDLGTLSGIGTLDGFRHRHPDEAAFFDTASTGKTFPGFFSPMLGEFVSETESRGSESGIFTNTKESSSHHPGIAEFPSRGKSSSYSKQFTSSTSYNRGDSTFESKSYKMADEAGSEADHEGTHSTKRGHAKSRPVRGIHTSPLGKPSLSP
T1 sequence (P02675 45-491 limits assumed): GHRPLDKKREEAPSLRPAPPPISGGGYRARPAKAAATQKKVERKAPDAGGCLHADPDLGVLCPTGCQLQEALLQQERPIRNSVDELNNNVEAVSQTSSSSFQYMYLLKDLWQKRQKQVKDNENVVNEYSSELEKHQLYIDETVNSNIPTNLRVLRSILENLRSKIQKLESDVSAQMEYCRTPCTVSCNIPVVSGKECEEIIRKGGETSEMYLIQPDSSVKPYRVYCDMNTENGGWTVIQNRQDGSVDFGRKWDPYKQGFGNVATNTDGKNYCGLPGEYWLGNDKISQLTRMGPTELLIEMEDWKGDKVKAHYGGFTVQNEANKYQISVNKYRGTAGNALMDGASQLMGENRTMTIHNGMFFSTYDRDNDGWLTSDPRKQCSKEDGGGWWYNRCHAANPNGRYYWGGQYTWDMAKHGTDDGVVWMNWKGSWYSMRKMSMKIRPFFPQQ
T1 sequence (P02679 27-437 isoform P02679-2 limits assumed): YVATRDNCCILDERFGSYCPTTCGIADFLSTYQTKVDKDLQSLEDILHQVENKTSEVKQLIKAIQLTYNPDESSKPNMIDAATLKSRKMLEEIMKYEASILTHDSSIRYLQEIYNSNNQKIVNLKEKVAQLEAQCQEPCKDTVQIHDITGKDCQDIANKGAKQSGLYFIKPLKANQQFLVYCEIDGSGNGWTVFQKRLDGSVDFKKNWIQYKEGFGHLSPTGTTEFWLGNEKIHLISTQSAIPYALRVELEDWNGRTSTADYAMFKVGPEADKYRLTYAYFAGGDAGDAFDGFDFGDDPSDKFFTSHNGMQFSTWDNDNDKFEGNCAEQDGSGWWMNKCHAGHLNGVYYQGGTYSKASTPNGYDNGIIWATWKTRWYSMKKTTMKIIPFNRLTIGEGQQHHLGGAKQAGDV
Protocol: Clot phantoms were generated using a typical procedure wherein 100 μL of human plasma was quickly mixed with 3 unit of thrombin solution. The resulting solution was then transferred into a plastic cylinder tube. Once clots were formed, they were placed each in 4 mL 0.1 M PBS buffer, pH7.0 solution.
The fibrin-binding monomer construct labeled with ^99mTc (10 mCi/350 μg) was prepared and analyzed by TLC as described in the examples above. The construct was diluted to generate a dilution series comprising 1, 5, 10, 15, 25, and 30 μg peptide construct in a total volume of 0.5 mL 0.1 M PBS at pH 7.4.
The monomeric construct was then combined with clot phantoms and incubated for 30 min at 37° C. in a water bath. Clot phantoms were separated from the solution by centrifugation device, and radioactivity was measured in the clot and the supernatant using a calibrated dosimeter. The experiment was repeated for three times and data were analyzed by Scatchard plot and regression analysis (FIG. 3). […] The dissociation constant (Kd) and the number of binding sites per clot were also determined.

[2] = 99mTc label retention with excess cysteine, clot phantoms (Example 5); assay type: physicochemical; settings: 0.25 mg cysteine in 0.5 mL PBS, 120 min, 37° C.
Protocol: (§1) In a parallel experiment, binding of the fibrin-binding monomeric construct to acellular clot phantoms in the presence of excess cysteine, or in the presence of 50% serum was also tested. For excess cysteine conditions, 0.25 mg of cysteine in 0.5 mL PBS was also combined with the monomeric construct and clot phantoms. The experiment was conducted as described above, and incubated for 120 min at 37° C. in a water bath. […] Cys is used to test the stability of the metal on the agent, and binding of the agent without the metal would look like lower binding. Instability and loss of the metal in the presence of serum could have accounted for the lower binding of the monomeric peptide, but the metal was stable. […] Thus the peptide binding was interfered with by off-target association with something in serum, likely albumen. This was consistent with previous reports describing the serum binding of the monomeric fibrin-binding peptide.

[3] = target: T1, fibrin (acellular clot phantoms); assay: Clot phantom binding in presence of 50% serum (Example 5)
Protocol: as §1

fibrin clot [4] = target: T2, fibrin clot (Homo sapiens, UniProt P02671+P02675+P02679); assay: Fibrin binding affinity, acellular fibrin clot assay (Hill slope model); settings: uniform fibrin clots in PBS, read-out: dissociation constant (Kd)
T2 construct: admixing 100 μl of fresh human plasma with 3 units thrombin (Sigma Chemical); from tissue; host or cells: fresh human plasma clotted with thrombin (Sigma Chemical)
T2 sequence (P02671 20-644 isoform P02671-2 limits assumed): T1 sequence (P02671 20-644 isoform P02671-2 limits assumed)
T2 sequence (P02675 45-491 limits assumed): T1 sequence (P02675 45-491 limits assumed)
T2 sequence (P02679 27-437 isoform P02679-2 limits assumed): T1 sequence (P02679 27-437 isoform P02679-2 limits assumed)
Protocol: (§2) Acellular fibrin clot assays of probe affinity, radiolabel stability, and plasma interference: Acellular fibrin clots were used: 1) to characterize the binding affinity of ^99mTc-F1A and ^99mTc-F4A, 2) to assess the stability of ^99mTc chelation, and 3) to evaluate the extent of plasma interference of fibrin binding. Specifically, uniform clots were produced by quickly admixing 100 μl of fresh human plasma with 3 units thrombin (Sigma Chemical). The mixture was pipetted into uniform cylindrical plastic tubes. Once formed, clots were washed repeatedly in 0.1 M PBS buffer (pH 7.0) then stored in same until use at 4° C.
Fibrin binding affinity: ^99mTc-F1A or ^99mTc-F4A (20 μCi) were incubated with the clot samples at 37° C. for 30 minutes with 1, 5, 10, 15, 25, and 30 μg cold monomer supplemented with 0.1 M PBS pH 7.4 to bring each test volume total to 0.5 ml. The fibrin clots were separated from unbound radioactivity by repeated centrifugation and washing then counted in a calibrated well counter (Wizard 3, Perkin Elmer). Results, adjusted for decay, were used to estimate dissociation constant (kd) using the Hill slope model, Y=Bmax*X^h/(Kd^h+X^h) (MatLab). Total fibrin concentration was estimated from plasma fibrinogen estimated to be 0.735 nmoles per clot.

fibrin clot [5] = target: T2, fibrin clot; assay: Plasma interference on fibrin clot binding (50:50 plasma:PBS)
Protocol: as §2
Assessment of ^99mTc-F1A and ^99mTc-F4A radiolabel stability and plasma interference: Radiolabeled F1A and F4A were bound to clots in the presence of marked excess cysteine to evaluate the stability of the ^99mTc label in triplicate.^49 99mTc-F1A or ^99mTc-F4A (20 μCi) supplemented with 0.1 M PBS pH 7.4 (total volume of 0.5 ml) were incubated with fibrin clot samples at 37° C. for 30 minutes. Similarly, the 0.1 M PBS buffer diluted 50% with fresh human plasma (total volume of 0.5 ml) was used to assess potential matrix interference on radiolabeled peptide binding in triplicate. In both instances, fibrin clots were separated from unbound radioactivity by repeated centrifugation, washed, then counted in a calibrated well counter (Wizard 3, Perkin Elmer).

fibrin clots = assay: Ex vivo LVAD flow study using a mock loop; assay type: binding; settings: 10,000 RPM, 6 L/min, 2 minutes, 50:50 plasma:PBS, 0.5 mCi
Protocol: The high shear (10,000 RPM) and high flow (6 L/min) of the LVAD, which is required to pump the entire circulating blood volume of the patient every minute, places severe demands on the binding affinity and clot retention of the nuclear probe. […] The ½″ plastic tubing circuit was filled with a 50:50 human plasma:PBS mixture (200 ml). Uniform fibrin clots were secured with a highly porous, thin gauze netting within a plastic ½″ chamber immediately proximal to the LVAD inlet secured. ^99mTc-F1A or ^99mTc-F4A were injected into the mock loop and allowed to target the clots at the full flux rate for 2 minutes.
Ex vivo LVAD flow study using a mock loop: A LVAD (Heartmate II) driven by a computer-controlled console was inserted into a 200 ml mock flow loop comprised of ½″ plastic tubing interconnecting a PBS/Fresh Plasma (50:50) reservoir, an injection port, a media drainage port, and an inline ½″ plastic chamber. Uniform fibrin clots produced by mixing fibrinogen, thrombin, and calcium and aged 24 hours were secured within the inline chamber using a highly porous, single thread layer of cotton gauze. […] Radioactive circulating plasma/PBS was drained and replaced with PBS, which circulated for 2 minutes to remove unbound radioactivity. Clot radioactivity was counted in a calibrated gamma well counter and the results adjusted for decay.

## 99mTc-labeled monomer: fibrin homing peptide QWECPYGLCWIQ linked through PEG2 spacer to technetium chelating sequence HHE [^99mTc-F1A]
[1]
  binding site per clot: 8.48E+14
  binding site per mg: 1.21E+15
[2]
  effect of excess cysteine on coupling of the 99mTc radiolabel: did not impact the secure coupling
[3]
  binding of labeled peptide to clot in presence of 50% serum: greatly diminished
Fibrin clot [4]
  Kd: ~10.2 µM
Fibrin clot [5]
  fibrin clot binding in 50:50 plasma:PBS versus PBS: severely compromised; also recorded: dramatically reduced
Fibrin clots
  clot binding and retention in LVAD mock loop: very low signal level; also recorded: very close to background level counts
